Data as given in article PMC10497752, “Heparins are potent inhibitors of ectonucleotide pyrophosphatase/phospho-diesterase-1 (NPP1) – a promising target for the immunotherapy of cancer” (Frontiers in Immunology, 2023).

Assays:
human NTPDase8 = target: T1, human NTPDase8 (Homo sapiens, UniProt Q5MY95); experiment: NTPDase CE-based assay, NTPDase8; format: biochemical; conditions: 20 µg/mL (12 µM)
T1 construct: made in house; host or cells: COS-7 cells
T1 sequence (Q5MY95 1-495): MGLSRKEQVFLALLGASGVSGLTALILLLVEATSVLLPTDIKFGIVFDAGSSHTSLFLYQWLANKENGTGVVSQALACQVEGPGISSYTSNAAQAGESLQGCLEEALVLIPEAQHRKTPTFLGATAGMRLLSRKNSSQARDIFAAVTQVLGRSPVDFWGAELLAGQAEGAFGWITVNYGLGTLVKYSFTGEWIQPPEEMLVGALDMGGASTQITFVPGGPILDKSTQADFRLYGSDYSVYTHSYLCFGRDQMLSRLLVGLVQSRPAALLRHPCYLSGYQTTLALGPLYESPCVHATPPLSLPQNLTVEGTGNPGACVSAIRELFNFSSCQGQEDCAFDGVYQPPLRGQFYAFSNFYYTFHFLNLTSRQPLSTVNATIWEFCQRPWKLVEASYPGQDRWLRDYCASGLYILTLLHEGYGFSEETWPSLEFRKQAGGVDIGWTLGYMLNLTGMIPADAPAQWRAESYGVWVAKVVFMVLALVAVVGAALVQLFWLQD
Procedure: For monitoring the activity of human NTPDases (subtypes 1, 2, 3 and 8) in the presence of test compounds, a CE-based assay system was used, according to a published procedure ([11], [25]). The following concentrations of test compounds were investigated in initial screening studies: 63 IU/mL of compounds 1 and 2, 30 µM of compound 6. For selectivity studies, the following concentration were employed: 50 IU/mL of 1, 12 µM of 6, and 48 µM of 7. The amount of enzyme was selected according to previously performed enzymatic titration, and adjusted to ensure a 10–20% conversion rate. Enzymes were obtained by transfection of COS-7 cells using plasmids encoding human NTPDase1 (GenBank accession number U87967) ([26]), NTPDase2 (NM_203468) ([27]), a kind gift of Dr. A.F. Knowles (San Diego, CA), NTPDase3 (AF034840) ([28]), a kind gift of Dr. T.L. Kirley (Cincinnati, OH) and human NTPDase8 (AY430414) ([29]) and purified as previously described ([30], [31]). The reaction buffer consisted of 10 mM HEPES, 2 mM CaCl2, and 1 mM MgCl2, pH 7.4. In the CE assay, the selected substrate concentration (ATP) was 100 µM for all studied human NTPDases (-1, -2, -3 and -8). […] The released products were separated by CE and quantified by their UV-absorption at 260 nm with ADP and AMP as external standards, as previously described ([11]); positive and negative controls were included.

human NPP4 = target: T2, human NPP4 (Homo sapiens, UniProt Q9Y6X5); experiment: NPP4 luminescence-based assay, Ap4A as substrate; format: biochemical; conditions: 20 µg/mL (12 µM)
T2 construct: as a substrate and human soluble NPP4; made in house
T2 sequence (Q9Y6X5 16-407 limits assumed): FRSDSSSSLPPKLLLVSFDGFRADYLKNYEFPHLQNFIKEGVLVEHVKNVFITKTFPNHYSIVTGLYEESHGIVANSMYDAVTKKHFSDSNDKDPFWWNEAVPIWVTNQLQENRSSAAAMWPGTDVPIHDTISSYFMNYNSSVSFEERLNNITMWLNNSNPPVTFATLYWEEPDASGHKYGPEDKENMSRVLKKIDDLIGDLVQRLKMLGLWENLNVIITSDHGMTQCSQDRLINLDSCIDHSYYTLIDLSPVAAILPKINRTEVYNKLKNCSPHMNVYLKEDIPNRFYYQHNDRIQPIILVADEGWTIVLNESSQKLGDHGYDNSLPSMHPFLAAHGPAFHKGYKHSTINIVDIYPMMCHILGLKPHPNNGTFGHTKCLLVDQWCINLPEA
Procedure: Selectivity studies on NPP4 were performed using a published luminescence-based assay versus 20 μM of diadenosine tetraphosphate (Ap4A) as a substrate and human soluble NPP4 ([24]). The assay buffer consisted of 10 mM HEPES, 1 mM MgCl2, and 2 mM CaCl2 (pH 8.00). The enzyme reaction was started by adding 0.14 μg of purified human NPP4 to the reaction mixture, which was incubated at 37°C for 90 min. The released product ATP was quantified using the luciferin-luciferase reaction. The firefly luciferase reacts with D-luciferin in the presence of the formed ATP and Mg^2+. The resulting luminescence is a measure of the enzymatic activity, and the luminescence was read at 560 nm using a microplate reader (BMG PheraStar). Three independent experiments were performed, each in duplicate measurements; positive and negative controls were included.

[1] = system: ectonucleotidases expressed in U87 cell membrane preparations; experiment: Enzymatic assay on U87 cell membrane preparations (adenosine formation, CE); format: biochemical, human; conditions: 6 at 3 and 30 µM, 7 at 35 µM
Procedure: U87 glioblastoma cells were grown in cell culture dishes until reaching a fully covered confluent cell layer. Cells were cultivated at 37°C and 5% CO2 in DMEM with additions of 10% FCS, 1% penicillin/streptomycin (P/S) mixture and 1% L-glutamine. When confluent, the cell culture media was carefully removed and cells were frozen at -20°C overnight. The cells were then scraped off with a cell scraper using 2-3 mL of buffer (5 mM Tris, 2 mM EDTA, pH 7.4), homogenized and centrifuged for 10 min at 1000 g. The supernatant was collected and centrifuged for 60 min at 48000 g and 4°C. The pellet was then resuspended twice with Tris buffer, pH 7.4, followed by vortexing and centrifugation. The whole procedure was performed on ice. Finally, the pellet was resuspended and homogenized. A protein concentration of 1.5 mg/mL was determined with the Bradford method ([35]), and the protein was kept at -20°C until used. The enzymatic assay was performed by incubating the membrane preparation and the substrate at 37°C and 500 rpm for 30 min, followed by heat inactivation at 95°C for 5 min. For the determination of kinetic parameters, several substrate concentrations (from 6 to 500 µM of ATP or AMP) were utilized and incubated with 10 µg of membrane preparation for 30 min at 37°C, followed by heat inactivation. Capillary electrophoresis (CE) was used for analysis and quantification of the enzymatic product according to published procedures ([11], [36]). For the determination of the enzymatic activity 400 µM of ATP were employed, and three different amounts of membrane preparation (6, 10 and 30 µg of protein) were utilized. A positive control using the known NPP1 inhibitor PSB-POM-141 (20 µM) was performed ([19]). Data were obtained from three independent experiments each in duplicate measurements. […] Controls were run in parallel.

SMILES: CO[C@H]1O[C@H](COS(=O)(=O)O)[C@@H](O[C@@H]2O[C@@H](C(=O)O)[C@@H](O[C@H]3O[C@H](COS(=O)(=O)O)[C@@H](O[C@@H]4O[C@H](C(=O)O)[C@@H](O[C@H]5O[C@H](COS(=O)(=O)O)[C@@H](O)[C@H](O)[C@H]5NS(=O)(=O)O)[C@H](O)[C@H]4O)[C@H](OS(=O)(=O)O)[C@H]3NS(=O)(=O)O)[C@H](O)[C@H]2OS(=O)(=O)O)[C@H](O)[C@H]1NS(=O)(=O)O [Compound 6, Fondaparinux]
- NTPDase8 inhibition, selectivity study (human NTPDase8): no effect
- NPP4 inhibition, selectivity study (human NPP4): no effect
- inhibition of the formation of adenosine from ATP [1]: inhibited the formation of adenosine in a dose-dependent manner
